Experimental data reported in US6046235A, “Sulfur-containing amino acid derivatives” (Santen Pharmaceutical Co., Ltd., priority 1996, dated 2000).

Tests used:
[1] = system: LTA4 hydrolase; conditions: literature; cited from earlier work
[2] = system: collagen-induced arthritis model; conditions: J. Med. Chem., 37, 3197-3199 (1994); cited from earlier work
[3] = biological target: T1, LTA4 hydrolase (Cavia porcellus, UniProt P19602); test: LTA4 hydrolase inhibition (LTB4 formed from LTA4, guinea pig lung enzyme preparation); type: biochemical; conditions: Table 2; guinea pig lung enzyme preparation; LTA4 63 μM; 37° C., one minute; pH 7.8; read-out: IC50 (concentration required to inhibit LTA4 hydrolase by 50%)
T1 construct: Lungs were excised from a Hartley guinea pig; from tissue; host or cells: Hartley guinea pig lung, 100,000×g supernatant, 40-70% ammonium sulfate fraction, dialyzed
T1 sequence (P19602 1-611): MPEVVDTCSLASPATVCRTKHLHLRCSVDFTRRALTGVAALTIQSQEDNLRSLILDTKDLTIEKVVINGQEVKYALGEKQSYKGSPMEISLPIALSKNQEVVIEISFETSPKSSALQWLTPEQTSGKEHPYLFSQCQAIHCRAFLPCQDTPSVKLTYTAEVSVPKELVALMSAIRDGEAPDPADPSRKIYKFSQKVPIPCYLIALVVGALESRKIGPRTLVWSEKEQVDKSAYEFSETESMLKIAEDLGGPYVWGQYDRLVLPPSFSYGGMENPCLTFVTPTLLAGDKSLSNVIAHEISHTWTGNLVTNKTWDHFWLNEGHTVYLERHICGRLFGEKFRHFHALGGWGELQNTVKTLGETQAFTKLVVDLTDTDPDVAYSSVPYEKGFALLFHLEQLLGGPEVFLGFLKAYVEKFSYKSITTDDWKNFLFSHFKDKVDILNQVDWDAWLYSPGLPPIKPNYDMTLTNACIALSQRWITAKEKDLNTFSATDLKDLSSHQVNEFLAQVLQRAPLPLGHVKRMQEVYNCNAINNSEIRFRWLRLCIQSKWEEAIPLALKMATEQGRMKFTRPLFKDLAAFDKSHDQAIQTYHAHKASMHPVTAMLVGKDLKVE
Protocol: Effects of the present compounds on LTA4 hydrolase were examined according to the method described in the literature.
Lungs were excised from a Hartley guinea pig (body weight: 330 g). The lungs were homogenized in phosphoric acid buffer (50 mM, pH 7.4, containing 1 mM ethylenediaminetetraacetic acid (EDTA) and 1 mM dithiothreitol (DTT) having weight three times that of the lungs under ice-cooling. The homogenate was centrifuged at low speed (800×g) for 20 minutes, centrifuged at high speed (10,000×g) for 20 minutes and ultracentrifuged (100,000×g) for 60 minutes to give a supernatant. The supernatant was brought to 40% saturation by adding a saturated aqueous ammonium sulfate solution (pH 7.0-7.2, containing 1 mM DTT) dropwise under ice-cooling and centrifuged at high speed (10,000×g) for 20 minutes. The resulting supernatant was brought to 70% saturation by adding a saturated aqueous ammonium sulfate solution (pH 7.0-7.2, containing 1 mM DTT) dropwise and centrifuged at high speed (10,000×g) for 20 minutes. The obtained pellet was dissolved in 2 ml of Tris-acetic acid buffer (20 mM, pH 7.8, containing 1 mM DTT) and dialyzed in 2 liters of the solution to give the enzyme preparation.
LTA4 used, which is the substrate, was prepared by hydrolyzing LTA4 methyl ester and dissolved in ethanol.
In order to examine effects of the present compounds on the enzyme preparation, reactions were performed under the following condition using mixed solutions consisting of the composition shown in Table 1.
HEPES buffer 50 mM, pH 7.8
Enzyme preparation 0.4-0.6 mg protein
Aqueous DTT solution 3 mM
The above-mentioned solution (50 μl ) was incubated at 37° C. for one minute. To the reaction mixture was added 100 μl of a mixed liquid of acetonitrile-ethanol-acetic acid (150:50:3, volume ratio) under ice-cooling. The mixture was allowed to stand at -20° C. for 30 minutes and centrifuged at high speed (10,000×g) for five minutes to give a supernatant. An amount of LTB4 produced in the supernatant was measured by high-speed liquid chromatography.
The degree of the inhibitory effect of each test compound on LTA4 hydrolase is expressed by the inhibition rate calculated by the following equation. [formula]
A: amount of LTB4 formed in the absence of the test compound
B: amount of LTB4 formed in the presence of the test compound
Experiments were carried out under the same conditions as those of the above-mentioned "Pharmacological Test".

| IC50 [3] [nM] | SMILES | inhibitory effect on LTA4 hydrolase (in words) [1] | onset of arthritis (in words) [2] |
| --- | --- | --- | --- |
|  | O=C(O)c1cccc(C2CO2)c1 (centres unmarked) [3-oxiranylbenzoic acid] | inhibitory effects on LTA4 hydrolase |  |
|  | O=C(O)C1(c2ccc3c(c2)OC[C@H](Cc2ccc(-c4ccccc4)cc2)[C@H]3O)CCCC1 [(+)-1-(3S, 4R)-[3-(4-phenylbenzyl)-4-hydroxychroman-7-yl]cyclopentanecarboxylic acid] | inhibitory effect on LTA4 hydrolase | inhibited the onset of arthritis |
| 32 | C[C@H](CSC(=O)c1ccccc1)C(=O)N[C@@H](CSCc1ccc(C(C)(C)C)cc1)C(=O)O [Compound No. 1-11, (2R)-2-[(2S)-3-(Benzoylthio)-2-methylpropionylamino]-3-(4-tert-butylbenzylthio) propionic acid] |  |  |
| 46 | CSc1ccc(CSC[C@H](NC(=O)[C@H](C)CS)C(=O)O)cc1 [Compound No. 2-16, (2R)-2-[(2S)-3-Mercapto-2-methylpropionylamino]-3-(4-methylthiobenzylthio)propionic acid] |  |  |
